Here are results for 13 molecules from PubChem BioAssay (NCI).

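All cell lines were grown in 96-well plates and treated with compound for 48 hours. TGI: total growth inhibition.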 Where only a bound is given, the exact number is not on record here.

Experiment in all cases: NCI tumour cell line growth inhibition, 48 h
Assay [1] has as its system IGROV1 ovarian.
The subject of assay [2] is SK-MEL-28 melanoma.
Assay [3] deals with ACHN renal.
The test system of assay [4] is SN12C renal.
Assay [5] concerns SK-MEL-2 melanoma.
Assay [6] deals with CCRF-CEM leukemia.
The test system of assay [7] is U251 CNS.
For assay [8], the system named is MOLT-4 leukemia.
In assay [9] the test system is RPMI-8226 leukemia.
The test system of assay [10] is NCI-H23 lung.
For assay [11], the system named is MALME-3M melanoma.
In assay [12] the test system is HS 578T breast.
Assay [13] deals with MCF7 breast.
In assay [14] the test system is HOP-92 NSCLC.
For assay [15], the system named is T-47D breast.
In assay [16] the test system is OVCAR-5 ovarian.
Assay [17] deals with HCT-15 colon.
Assay [18] relates to SR leukemia.
The subject of assay [19] is BT-549 breast.
Assay [20] deals with MDA-MB-435.

On to `COc1c(O)c(O)c2c(c1O)C(=O)c1cc(C)cc(O)c1C2=O`, for which the TGI in [1], in assay [2], in assay [3], in assay [4], in assay [5] and in [6] was > 100 µM in each case. For the same molecule, the TGI is > 100 µM in assay [7]; > 100 µM in [8]; > 100 µM in assay [9]; > 100 µM in [10]; 83.5 µM in assay [11]; 78.9 µM in assay [12]. For the same molecule, the TGI in assay [13], in [14], in [15], in assay [16], in [17] and in [18] was > 100 µM each time. For the same molecule, the TGI in assay [19] and in [20] was > 100 µM throughout.

In the case of `CCCC(=O)NC(C(=O)OCC)(N1CCOCC1)C(F)(F)F` (stereo not given), the TGI in assay [1], in [2], in assay [3], in [4], in assay [5] and in [6] was > 100 µM in each case. Moreover, the TGI in assay [7], in assay [8], in assay [9], in assay [10], in [11] and in [12] was > 100 µM throughout. The TGI in assay [13], in assay [14], in [15], in assay [16], in [17] and in assay [18] was > 100 µM each time. In addition, the TGI in assay [19] and in [20] was > 100 µM each time.

As to `CCCNC(=O)Cn1c(C)cc2ccccc21`, the TGI in [1], in assay [2], in assay [3], in assay [4], in [5] and in assay [6] was > 100 µM in each case. The TGI in assay [7], in assay [8], in [9], in [10], in [11] and in [12] was > 100 µM in each case. Besides, the TGI in assay [13], in assay [14], in assay [15], in [16], in assay [17] and in assay [18] was > 100 µM each time. The TGI in assay [19] and in assay [20] was > 100 µM each time.

`COC(=O)C1(Cc2cccc(C)c2)Cc2c(C)cccc2C1=O` (stereo not given): the TGI in [1], in [2], in assay [3], in assay [4], in assay [5] and in [6] was > 100 µM throughout. The TGI in assay [7], in assay [8], in [9], in assay [10], in assay [11] and in assay [12] was > 100 µM throughout. In addition, the TGI in assay [13] is 90.8 µM; in [14], > 100 µM; in assay [15], > 100 µM; in [16], > 100 µM; in assay [17], > 100 µM; in assay [18], > 100 µM. In addition, the TGI in [19] is > 100 µM; in [20], 41.3 µM.

As for `CNCCCNC1(c2cc3ccccc3s2)CCCCC1`, the TGI in assay [1] was determined as 25.5 µM; in assay [2], 3.91 µM; in [3], 26.9 µM; in assay [4], 18.4 µM; in [5], 10.9 µM; in assay [6], 4.51 µM. The TGI worked out at 16.4 µM in [7]; 7.48 µM in assay [8]; 6.18 µM in assay [9]; 30.6 µM in assay [10]; 4.57 µM in [11]; 29.1 µM in [12]. Moreover, the TGI in assay [13] amounted to 15.5 µM; in assay [14], 14.8 µM; in [15], 11.9 µM; in assay [16], 27.5 µM; in [17], 21.7 µM; in assay [18], 3.44 µM. Moreover, the TGI in [19] came to 29.8 µM; in assay [20], 5.86 µM.

For `CC1OC(OC2C(CO)OC(O[C@H]3CC[C@@]4(C)C(=CC[C@H]5[C@@H]6C[C@@H]7O[C@](O)(CC[C@H](CO)COC8OC(CO)C(O)C(O)C8O)[C@@H](C)[C@@H]7[C@@]6(C)CC[C@@H]54)C3)C(OC3OC(C)C(O)C(O)C3O)C2O)C(O)C(O)C1O` (stereo not given in full), the TGI in assay [1], in assay [2], in [3], in assay [4], in assay [5] and in assay [6] was > 100 µM in each case. The TGI in assay [7], in assay [8], in assay [9], in [10], in assay [11] and in [12] was > 100 µM each time. Besides, the TGI in [13], in assay [14], in assay [15], in assay [16], in assay [17] and in assay [18] was > 100 µM each time. In addition, the TGI in [19] and in assay [20] was > 100 µM each time.

Take `Cc1ccc2c(c1)C(C1Cc3cccc(C)c3C1=O)OC2=O` (stereo not given): the TGI in [1], in assay [2], in [3], in assay [4], in [5] and in assay [6] was > 100 µM throughout. Moreover, the TGI was > 100 µM in [7]; > 100 µM in assay [8]; 88.3 µM in assay [9]; > 100 µM in assay [10]; > 100 µM in assay [11]; > 100 µM in assay [12]. The TGI in assay [13], in assay [14], in [15], in assay [16], in [17] and in [18] was > 100 µM each time. Moreover, the TGI in [19] and in assay [20] was > 100 µM each time.

In the case of `CCOC(=O)c1[nH]cc(C)c1-c1c[nH]c2ccccc12`, the TGI in assay [1] is > 100 µM; in [2], > 100 µM; in [3], > 71.4 µM; in assay [4], > 100 µM; in assay [5], > 93 µM; in [6], > 78.1 µM. In addition, the TGI in assay [7] was > 100 µM; in assay [8], 27.9 µM; in assay [9], 41.9 µM; in assay [10] it was > 100 µM; in [11] it was > 100 µM; in assay [12] it was 61.7 µM. In addition, the TGI in [13] is > 60.8 µM; in assay [14], > 74.4 µM; in [15] it was > 100 µM; in assay [16] it was > 100 µM; in assay [17], > 100 µM; in assay [18], > 39.4 µM. Besides, the TGI in assay [19] is 93.8 µM; in assay [20], > 100 µM.

For the molecule `C[C@]12CC[C@H]3[C@@H](CCC4=CC(=O)CC[C@@]43C)[C@@H]1CC[C@@H]2C(=O)Nc1ccc([N+](=O)[O-])c(C(F)(F)F)c1`, the TGI came out at 43.7 µM in assay [1]; 37.4 µM in assay [2]; 38.9 µM in [3]; 41 µM in assay [4]; 33.2 µM in assay [5]; 71.3 µM in assay [6]. The TGI in assay [7] was 31.5 µM; in assay [8], 70.8 µM; in assay [9], > 100 µM; in assay [10] it was > 10 µM; in assay [11], 31.2 µM; in assay [12], 38.4 µM. In addition, the TGI is 30.5 µM in assay [13]; 58.2 µM in assay [14]; 37.8 µM in assay [15]; > 10 µM in assay [16]; 25.7 µM in assay [17]; 87.4 µM in assay [18]. Besides, the TGI turned out to be 35.6 µM in assay [19] and 32.3 µM in [20].

`CCOC(=O)N1CCN(c2nc(C)n(-c3ccccc3)c(=S)c2C#N)CC1`: the TGI in [1] was > 63.4 µM; in [2] it was > 100 µM; in [3], > 100 µM; in assay [4], > 100 µM; in [5], > 100 µM; in assay [6] it was > 62.6 µM. The TGI in assay [7], in [8], in assay [9], in assay [10], in assay [11] and in [12] was > 100 µM throughout. Moreover, the TGI in [13], in assay [14], in assay [15], in assay [16], in assay [17] and in assay [18] was > 100 µM each time. In addition, the TGI in [19] and in [20] was > 100 µM throughout.

With `Cc1ccc([N+](=O)[O-])cc1S(=O)(=O)Nc1ccc(C2=NN(C(=O)c3ccccc3)C(c3cccs3)C2)cc1` (stereo not given), the TGI in [1] is > 100 µM; in assay [2], > 100 µM; in assay [3], > 100 µM; in assay [4], 66.3 µM; in assay [5] it was 39.5 µM; in [6] it was > 100 µM. The TGI in [7] was > 100 µM; in assay [8], > 100 µM; in assay [9] it was > 100 µM; in assay [10], 61.7 µM; in assay [11], 68.6 µM; in assay [12] it was > 100 µM. Further, the TGI in assay [13] was > 100 µM; in [14] it was 55.3 µM; in assay [15], 84.2 µM; in [16], > 100 µM; in [17] it was > 100 µM; in assay [18], > 100 µM. Besides, the TGI in assay [19] and in assay [20] was > 100 µM in each case.

Turning to `COc1ccccc1/C=C/c1c(N)ncnc1Nc1cccc(Cl)c1`, the TGI in [1] turned out to be 27.7 µM; in [2], 36.4 µM; in [3], 26 µM; in [4], 30.9 µM; in [5], 36.5 µM; in assay [6] it was 1.12 µM. The TGI was 34.4 µM in assay [7]; > 100 µM in assay [8]; 31.2 µM in assay [9]; 47 µM in [10]; 59.7 µM in [11]; 44 µM in assay [12]. Moreover, the TGI in assay [13] is > 100 µM; in assay [14] it was 0.588 µM; in assay [15], > 100 µM; in [16], > 100 µM; in [17], 52.5 µM; in [18] it was > 100 µM. For the same molecule, the TGI in [19] turned out to be 35.7 µM; in assay [20] it was 33.1 µM.

Regarding `CCC12CC(c3ccccc3)C(C(=O)N1)C(=O)N2` (stereo not given), the TGI in [1], in assay [2], in assay [3], in assay [4], in assay [5] and in [6] was > 100 µM in each case. The TGI in assay [7], in assay [8], in assay [9], in assay [10], in [11] and in assay [12] was > 100 µM in each case. The TGI in assay [13], in assay [14], in assay [15], in assay [16], in [17] and in assay [18] was > 100 µM in each case. The TGI in [19] and in assay [20] was > 100 µM throughout.
